From the supplement of paper PMC10307832

What was measured:
Test in all cases: relative viability (nuclei count vs DMSO), 5 days (fraction); higher = more cells survive
CAL-12T = test system: CAL-12T
How it was run: (§1)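 Relative viability was taken as the ratio of nuclei in treated wells to nuclei in vehicle wells. Lung cancer cell lines in 1536-well plates received compounds by pin tool one day after seeding, either one drug alone or a fixed anchor-drug dose plus five library-drug doses (not always all listed) in √10 steps. Nuclei were counted on 4× images after 5 days of treatment, and values are medians of duplicate plates.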

NCI-H1755 = test system: NCI-H1755
How it was run: as §1

NCI-H2405 = test system: NCI-H2405
How it was run: as §1

NCI-H2342 = test system: NCI-H2342
How it was run: as §1

PC-14 = test system: PC-14
How it was run: as §1

HCC-827 = test system: HCC-827
How it was run: as §1

EKVX = test system: EKVX
How it was run: as §1

LK-2 = test system: LK-2
How it was run: as §1

NCI-H661 = test system: NCI-H661
How it was run: as §1

NCI-H520 = test system: NCI-H520
How it was run: as §1

NCI-H2228 = test system: NCI-H2228
How it was run: as §1

H3255 = test system: H3255
How it was run: as §1

NCI-H1734 = test system: NCI-H1734
How it was run: as §1

NCI-H1975 = test system: NCI-H1975
How it was run: as §1

PC-3 [JPC-3] = test system: PC-3 [JPC-3]
How it was run: as §1

LCLC-97TM1 = test system: LCLC-97TM1
How it was run: as §1

HCC-15 = test system: HCC-15
How it was run: as §1

NCI-H1650 = test system: NCI-H1650
How it was run: as §1

NCI-H1355 = test system: NCI-H1355
How it was run: as §1

RERF-LC-KJ = test system: RERF-LC-KJ
How it was run: as §1

NCI-H322M = test system: NCI-H322M
How it was run: as §1

NCI-H1563 = test system: NCI-H1563
How it was run: as §1

## CC(=O)O[C@@]12CO[C@@H]1C[C@H](O)[C@@]1(C)C(=O)[C@H](O)C3=C(C)[C@@H](OC(=O)[C@H](O)[C@@H](NC(=O)OC(C)(C)C)c4ccccc4)C[C@@](O)([C@@H](OC(=O)c4ccccc4)[C@H]21)C3(C)C [Docetaxel] + CCNC(=O)c1noc(-c2cc(C(C)C)c(O)cc2O)c1-c1ccc(CN2CCOCC2)cc1 [Luminespib] (partner 0.01 µM)
CAL-12T; first compound 0.0002 µM
  relative viability: 0.413
CAL-12T; first compound 0.000632 µM
  relative viability: 0.252
CAL-12T; first compound 0.002 µM
  relative viability: 0.199
CAL-12T; first compound 0.006325 µM
  relative viability: 0.168
CAL-12T; first compound 0.02 µM
  relative viability: 0.136
NCI-H1755; first compound 0.0002 µM
  relative viability: 0.427
NCI-H1755; first compound 0.000632 µM
  relative viability: 0.492
NCI-H1755; first compound 0.002 µM
  relative viability: 0.271
NCI-H1755; first compound 0.006325 µM
  relative viability: 0.218
NCI-H1755; first compound 0.02 µM
  relative viability: 0.151
NCI-H2405; first compound 0.0002 µM
  relative viability: 0.607
NCI-H2405; first compound 0.000632 µM
  relative viability: 0.603
NCI-H2405; first compound 0.002 µM
  relative viability: 0.486
NCI-H2405; first compound 0.006325 µM
  relative viability: 0.33
NCI-H2405; first compound 0.02 µM
  relative viability: 0.22
NCI-H2342; first compound 0.0002 µM
  relative viability: 0.673
NCI-H2342; first compound 0.000632 µM
  relative viability: 0.677
NCI-H2342; first compound 0.002 µM
  relative viability: 0.673
NCI-H2342; first compound 0.006325 µM
  relative viability: 0.462
NCI-H2342; first compound 0.02 µM
  relative viability: 0.4
PC-14; first compound 0.0002 µM
  relative viability: 0.199
PC-14; first compound 0.000632 µM
  relative viability: 0.162
PC-14; first compound 0.002 µM
  relative viability: 0.116
PC-14; first compound 0.02 µM
  relative viability: 0.127
HCC-827; first compound 0.0002 µM
  relative viability: 0.588
HCC-827; first compound 0.000632 µM
  relative viability: 0.67
HCC-827; first compound 0.002 µM
  relative viability: 0.244
HCC-827; first compound 0.006325 µM
  relative viability: 0.159
HCC-827; first compound 0.02 µM
  relative viability: 0.142
EKVX; first compound 0.0002 µM
  relative viability: 0.85
EKVX; first compound 0.000632 µM
  relative viability: 0.795
EKVX; first compound 0.002 µM
  relative viability: 0.45
EKVX; first compound 0.006325 µM
  relative viability: 0.305
EKVX; first compound 0.02 µM
  relative viability: 0.161
LK-2; first compound 0.0002 µM
  relative viability: 0.193
LK-2; first compound 0.000632 µM
  relative viability: 0.177
LK-2; first compound 0.002 µM
  relative viability: 0.157
LK-2; first compound 0.006325 µM
  relative viability: 0.164
LK-2; first compound 0.02 µM
  relative viability: 0.168
NCI-H661; first compound 0.0002 µM
  relative viability: 0.782
NCI-H661; first compound 0.000632 µM
  relative viability: 0.933
NCI-H661; first compound 0.002 µM
  relative viability: 0.707
NCI-H661; first compound 0.006325 µM
  relative viability: 0.432
NCI-H661; first compound 0.02 µM
  relative viability: 0.323
NCI-H520; first compound 0.000632 µM
  relative viability: 0.23
NCI-H520; first compound 0.002 µM
  relative viability: 0.233
NCI-H520; first compound 0.006325 µM
  relative viability: 0.259
NCI-H520; first compound 0.02 µM
  relative viability: 0.207
NCI-H2228; first compound 0.0002 µM
  relative viability: 0.146
NCI-H2228; first compound 0.000632 µM
  relative viability: 0.145
NCI-H2228; first compound 0.002 µM
  relative viability: 0.129
NCI-H2228; first compound 0.006325 µM
  relative viability: 0.194
NCI-H2228; first compound 0.02 µM
  relative viability: 0.19
H3255; first compound 0.0002 µM
  relative viability: 0.907
H3255; first compound 0.000632 µM
  relative viability: 1.12
H3255; first compound 0.002 µM
  relative viability: 0.755
H3255; first compound 0.006325 µM
  relative viability: 0.157
H3255; first compound 0.02 µM
  relative viability: 0.309
NCI-H1734; first compound 0.0002 µM
  relative viability: 0.213
NCI-H1734; first compound 0.000632 µM
  relative viability: 0.197
NCI-H1734; first compound 0.002 µM
  relative viability: 0.175
NCI-H1734; first compound 0.006325 µM
  relative viability: 0.161
NCI-H1734; first compound 0.02 µM
  relative viability: 0.14
NCI-H1975; first compound 0.0002 µM
  relative viability: 0.364
NCI-H1975; first compound 0.000632 µM
  relative viability: 0.24
NCI-H1975; first compound 0.002 µM
  relative viability: 0.272
NCI-H1975; first compound 0.006325 µM
  relative viability: 0.155
NCI-H1975; first compound 0.02 µM
  relative viability: 0.181
PC-3 [JPC-3]; first compound 0.0002 µM
  relative viability: 0.678
PC-3 [JPC-3]; first compound 0.000632 µM
  relative viability: 0.684
PC-3 [JPC-3]; first compound 0.002 µM
  relative viability: 0.5
PC-3 [JPC-3]; first compound 0.006325 µM
  relative viability: 0.223
PC-3 [JPC-3]; first compound 0.02 µM
  relative viability: 0.141
LCLC-97TM1; first compound 0.0002 µM
  relative viability: 0.71
LCLC-97TM1; first compound 0.000632 µM
  relative viability: 0.622
LCLC-97TM1; first compound 0.002 µM
  relative viability: 0.548
LCLC-97TM1; first compound 0.006325 µM
  relative viability: 0.167
LCLC-97TM1; first compound 0.02 µM
  relative viability: 0.106
HCC-15; first compound 0.0002 µM
  relative viability: 0.35
HCC-15; first compound 0.000632 µM
  relative viability: 0.303
HCC-15; first compound 0.002 µM
  relative viability: 0.173
HCC-15; first compound 0.006325 µM
  relative viability: 0.182
HCC-15; first compound 0.02 µM
  relative viability: 0.12
NCI-H1650; first compound 0.0002 µM
  relative viability: 0.22
NCI-H1650; first compound 0.000632 µM
  relative viability: 0.212
NCI-H1650; first compound 0.006325 µM
  relative viability: 0.199
NCI-H1650; first compound 0.02 µM
  relative viability: 0.193
NCI-H1355; first compound 0.0002 µM
  relative viability: 0.784
NCI-H1355; first compound 0.000632 µM
  relative viability: 0.66
NCI-H1355; first compound 0.002 µM
  relative viability: 0.599
NCI-H1355; first compound 0.006325 µM
  relative viability: 0.255
NCI-H1355; first compound 0.02 µM
  relative viability: 0.194
RERF-LC-KJ; first compound 0.0002 µM
  relative viability: 1.16
RERF-LC-KJ; first compound 0.000632 µM
  relative viability: 0.853
RERF-LC-KJ; first compound 0.002 µM
  relative viability: 0.353
RERF-LC-KJ; first compound 0.02 µM
  relative viability: 0.211
NCI-H322M; first compound 0.0002 µM
  relative viability: 0.836
NCI-H322M; first compound 0.000632 µM
  relative viability: 0.891
NCI-H322M; first compound 0.002 µM
  relative viability: 0.788
NCI-H322M; first compound 0.006325 µM
  relative viability: 0.557
NCI-H322M; first compound 0.02 µM
  relative viability: 0.347
NCI-H1563; first compound 0.0002 µM
  relative viability: 0.518
NCI-H1563; first compound 0.000632 µM
  relative viability: 0.522
NCI-H1563; first compound 0.002 µM
  relative viability: 0.515
NCI-H1563; first compound 0.006325 µM
  relative viability: 0.457
NCI-H1563; first compound 0.02 µM
  relative viability: 0.408
